Literature values in article PMC5751249, “Anti-Diabetic Effect of Organo-Chalcogen (Sulfur and Selenium) Zinc Complexes with Hydroxy-Pyrone Derivatives on Leptin-Deficient Type 2 Diabetes Model ob/ob Mice” (International Journal of Molecular Sciences, 2017).

What was measured:
[1] = system: Isolated male Wistar rat epididymal adipocytes; design: method as in PMID 29843022; settings: 20 μM Zn complex, means ± SDs, three runs; cited from earlier work
[2] = system: Isolated male Wistar rat epididymal adipocytes; design: method as in PMID 29843022; settings: adrenaline-stimulated, means ± SDs, three runs, read-out: IC50 of free fatty acid release; cited from earlier work

O.O.O.O.O.O.O.O=S(=O)([O-])[O-].[Zn+2] [ZnSO4, Zinc sulfate heptahydrate, reference compound]
Glucose Uptake [1]: none
IC50 [2]: 585 ± 305 µM
